{
  "source": "patent US20110165565A1",
  "about": "“COMPOSITIONS AND METHODS FOR POLYNUCLEOTIDE EXTRACTION AND METHYLATION DETECTION” (THE JOHNS HOPKINS UNIVERSITY, priority 2008, published 2011)",
  "test_system": "p16 promoter methylation in colorectal cancer cell line RKO",
  "assay": "MS-qFRET quantification of p16 methylation reversal in RKO cells treated with DAC",
  "format": "cell-based",
  "excerpt": "The quantitative ability of MS-qFRET was further tested in cell lines and in patient samples as a function of response to a DNA demethylating agent. Reversal of methylation in the colorectal cancer cell line, RKO, was quantified at specific time points after treatment with 5-aza-2′-deoxycytidine (DAC). […] Since DNA replication is necessary for incorporation of DAC into DNA, reversal of methylation may be best observed only after inhibition of DNA methyltransferases due to cell cycling. The low amount of methylation reversal in the initial 24 to 36 hours could be attributed to the 22 hour doubling time for RKO cells.\n(ID and IA corresponding to donor and acceptor intensity).",
  "data": [
    {"smiles": "Nc1ncn([C@H]2C[C@H](O)[C@@H](CO)O2)c(=O)n1", "note": "[5-aza-2′-deoxycytidine (DAC), 5-aza-2′-deoxycytidine]", "values": [
      {"measurement": "q-score, level of p16 methylation post-treatment", "setting": "DNA from RKO cells treated with DAC for different time points (FIG. 3C)", "result": "drop in the level of methylation"},
      {"measurement": "time of maximal reversal of methylation at p16", "setting": "RKO cells, 1 μM DAC, post-treatment", "result": 60, "unit": "h"}
    ]}
  ]
}
